# According to ChEMBL document CHEMBL4725311, “Discovery of potent, orally bioavailable in vivo efficacious antagonists of the TLR7/8 pathway” (Bioorg Med Chem Lett, 2020):
# Molecular target: T1, Toll-like receptor 7 (Mus musculus, UniProt P58681)
# T1 sequence (P58681 whole entry): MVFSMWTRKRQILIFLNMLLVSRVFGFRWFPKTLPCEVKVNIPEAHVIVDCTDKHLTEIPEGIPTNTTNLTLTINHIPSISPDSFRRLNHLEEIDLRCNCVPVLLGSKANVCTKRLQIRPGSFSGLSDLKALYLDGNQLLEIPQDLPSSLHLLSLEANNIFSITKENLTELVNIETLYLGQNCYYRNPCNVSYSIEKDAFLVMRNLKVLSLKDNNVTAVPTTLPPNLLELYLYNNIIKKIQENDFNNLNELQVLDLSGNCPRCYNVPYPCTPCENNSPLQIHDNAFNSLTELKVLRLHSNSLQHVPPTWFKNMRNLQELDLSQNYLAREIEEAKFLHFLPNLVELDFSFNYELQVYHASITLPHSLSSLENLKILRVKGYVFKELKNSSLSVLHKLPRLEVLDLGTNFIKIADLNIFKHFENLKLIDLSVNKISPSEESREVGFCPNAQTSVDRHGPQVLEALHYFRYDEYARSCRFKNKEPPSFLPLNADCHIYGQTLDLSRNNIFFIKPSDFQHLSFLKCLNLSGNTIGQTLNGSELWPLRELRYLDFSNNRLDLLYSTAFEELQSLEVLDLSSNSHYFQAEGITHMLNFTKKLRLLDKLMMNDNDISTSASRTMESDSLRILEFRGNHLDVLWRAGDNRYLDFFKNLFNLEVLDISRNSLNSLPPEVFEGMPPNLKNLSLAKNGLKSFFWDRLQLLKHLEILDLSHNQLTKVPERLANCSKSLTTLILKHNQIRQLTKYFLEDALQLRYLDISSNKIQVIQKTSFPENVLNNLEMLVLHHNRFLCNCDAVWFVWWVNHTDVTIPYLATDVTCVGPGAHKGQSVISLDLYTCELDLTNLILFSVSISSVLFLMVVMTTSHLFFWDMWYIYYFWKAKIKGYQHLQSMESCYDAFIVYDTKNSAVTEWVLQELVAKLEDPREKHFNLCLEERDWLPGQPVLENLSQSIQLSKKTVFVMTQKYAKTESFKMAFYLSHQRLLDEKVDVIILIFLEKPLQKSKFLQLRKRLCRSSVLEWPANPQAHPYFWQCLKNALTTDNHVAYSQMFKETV
# Experiment: Antagonist activity at TLR7 in mouse P4H1 cells assessed as inhibition of imiquimod-induced IL6 production
# Type: cell-based
# Details: not given
row,IC50 [nM],Compound
1,170,CN1CCN(CCCOc2ccc(-c3nn(C)c4nc(N)ncc34)cc2F)CC1

# Molecular target: T1, Toll-like receptor 7
# Experiment: Antagonist activity at TLR7 in mouse splenocytes assessed as inhibition of ssRNA40-induced IL6 production
# Type: cell-based, Splenocyte
# Details: not given
row,IC50 [nM],Compound
1,4,Cc1cc(-c2ccnc3[nH]ncc23)cnc1OCC12CCC(N)(CC1)CC2
2,300,Cn1ncc2c(-c3ccc(OCC45CCC(N)(CC4)CC5)c(F)c3)nc(N)nc21
3,55,Cc1cc(-c2ccnc3[nH]ncc23)cnc1OCC12CCC(O)(CC1)CC2
4,2000,CN1CCN(CCCOc2ccc(-c3nn(C)c4nc(N)ncc34)cc2F)CC1

# Molecular target: T2, Toll-like receptor 9 (Mus musculus, UniProt Q9EQU3)
# T2 sequence (Q9EQU3 whole entry): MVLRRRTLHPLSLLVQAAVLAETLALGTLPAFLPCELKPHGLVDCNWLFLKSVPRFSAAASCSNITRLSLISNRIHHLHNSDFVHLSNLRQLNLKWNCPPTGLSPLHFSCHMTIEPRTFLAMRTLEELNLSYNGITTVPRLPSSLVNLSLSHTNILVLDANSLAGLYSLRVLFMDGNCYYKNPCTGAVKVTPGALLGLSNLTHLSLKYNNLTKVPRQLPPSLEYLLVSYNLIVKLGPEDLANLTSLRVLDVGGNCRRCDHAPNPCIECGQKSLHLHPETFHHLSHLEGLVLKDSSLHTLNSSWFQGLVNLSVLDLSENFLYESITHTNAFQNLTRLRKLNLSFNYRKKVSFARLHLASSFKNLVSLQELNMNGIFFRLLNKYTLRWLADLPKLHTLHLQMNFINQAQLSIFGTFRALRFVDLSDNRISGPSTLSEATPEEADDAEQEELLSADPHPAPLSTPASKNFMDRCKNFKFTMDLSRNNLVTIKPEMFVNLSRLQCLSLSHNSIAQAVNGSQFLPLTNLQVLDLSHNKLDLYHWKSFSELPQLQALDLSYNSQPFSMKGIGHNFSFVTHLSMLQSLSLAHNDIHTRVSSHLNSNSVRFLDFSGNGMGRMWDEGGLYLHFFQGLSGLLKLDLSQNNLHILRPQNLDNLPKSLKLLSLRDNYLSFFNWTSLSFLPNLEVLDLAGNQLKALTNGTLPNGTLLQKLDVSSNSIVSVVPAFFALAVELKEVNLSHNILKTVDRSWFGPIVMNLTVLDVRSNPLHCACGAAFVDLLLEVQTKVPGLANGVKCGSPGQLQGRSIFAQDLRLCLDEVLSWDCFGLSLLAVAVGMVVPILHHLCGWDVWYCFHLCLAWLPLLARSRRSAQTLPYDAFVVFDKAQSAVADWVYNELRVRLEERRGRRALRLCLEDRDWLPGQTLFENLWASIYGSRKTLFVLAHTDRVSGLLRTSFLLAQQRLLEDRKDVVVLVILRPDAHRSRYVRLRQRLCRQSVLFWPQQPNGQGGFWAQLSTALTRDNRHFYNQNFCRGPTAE
# Experiment: Antagonist activity at TLR9 in mouse splenocytes assessed as inhibition of CpG1585-induced IL6 production
# Type: cell-based, Splenocyte
# Details: not given
row,IC50 [nM],Compound
1,1200,Cc1cc(-c2ccnc3[nH]ncc23)cnc1OCC12CCC(N)(CC1)CC2
2,800,Cn1ncc2c(-c3ccc(OCC45CCC(N)(CC4)CC5)c(F)c3)nc(N)nc21
3,> 10000,Cc1cc(-c2ccnc3[nH]ncc23)cnc1OCC12CCC(O)(CC1)CC2
4,2000,CN1CCN(CCCOc2ccc(-c3nn(C)c4nc(N)ncc34)cc2F)CC1

# Molecular target: T3, Toll-like receptor 8 (Homo sapiens, UniProt Q9NR97)
# T3 sequence (Q9NR97 whole entry): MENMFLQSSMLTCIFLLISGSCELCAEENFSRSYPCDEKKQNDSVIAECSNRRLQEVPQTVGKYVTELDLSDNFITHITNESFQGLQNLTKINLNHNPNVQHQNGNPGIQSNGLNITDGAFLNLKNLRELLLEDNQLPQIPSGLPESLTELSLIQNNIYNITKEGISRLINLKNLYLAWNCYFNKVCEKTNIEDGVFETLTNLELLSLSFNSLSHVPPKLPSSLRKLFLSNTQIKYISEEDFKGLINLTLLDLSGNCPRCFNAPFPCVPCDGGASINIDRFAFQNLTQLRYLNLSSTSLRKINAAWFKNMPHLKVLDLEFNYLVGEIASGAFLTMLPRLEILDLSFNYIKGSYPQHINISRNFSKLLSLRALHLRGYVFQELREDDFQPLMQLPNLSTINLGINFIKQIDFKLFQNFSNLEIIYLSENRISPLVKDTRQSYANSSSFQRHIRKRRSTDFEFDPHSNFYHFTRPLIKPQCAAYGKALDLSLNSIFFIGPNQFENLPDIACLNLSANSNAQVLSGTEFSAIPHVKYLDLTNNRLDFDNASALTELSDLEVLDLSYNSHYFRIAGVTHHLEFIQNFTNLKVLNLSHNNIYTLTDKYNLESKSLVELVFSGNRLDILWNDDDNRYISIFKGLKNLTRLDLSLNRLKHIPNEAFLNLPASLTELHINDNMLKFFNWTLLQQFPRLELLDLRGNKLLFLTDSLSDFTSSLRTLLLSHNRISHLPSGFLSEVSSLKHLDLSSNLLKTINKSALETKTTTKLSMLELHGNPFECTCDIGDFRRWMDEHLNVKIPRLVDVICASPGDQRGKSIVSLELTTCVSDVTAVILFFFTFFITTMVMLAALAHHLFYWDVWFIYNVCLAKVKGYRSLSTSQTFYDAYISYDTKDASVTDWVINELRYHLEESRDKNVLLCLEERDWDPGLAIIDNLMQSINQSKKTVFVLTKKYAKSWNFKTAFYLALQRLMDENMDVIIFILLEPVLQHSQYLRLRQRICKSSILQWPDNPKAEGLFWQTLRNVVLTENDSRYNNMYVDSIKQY
# Experiment: Antagonist activity at TLR8 in human THP-1 cells assessed as inhibition of resiquimod-induced TNFalpha production
# Type: cell-based
# Details: not given
row,IC50 [nM],Compound
1,< 1,Cc1cc(-c2ccnc3[nH]ncc23)cnc1OCC12CCC(N)(CC1)CC2

# Molecular target: T4, Toll-like receptor 9 (Homo sapiens, UniProt Q9NR96)
# T4 sequence (Q9NR96 whole entry): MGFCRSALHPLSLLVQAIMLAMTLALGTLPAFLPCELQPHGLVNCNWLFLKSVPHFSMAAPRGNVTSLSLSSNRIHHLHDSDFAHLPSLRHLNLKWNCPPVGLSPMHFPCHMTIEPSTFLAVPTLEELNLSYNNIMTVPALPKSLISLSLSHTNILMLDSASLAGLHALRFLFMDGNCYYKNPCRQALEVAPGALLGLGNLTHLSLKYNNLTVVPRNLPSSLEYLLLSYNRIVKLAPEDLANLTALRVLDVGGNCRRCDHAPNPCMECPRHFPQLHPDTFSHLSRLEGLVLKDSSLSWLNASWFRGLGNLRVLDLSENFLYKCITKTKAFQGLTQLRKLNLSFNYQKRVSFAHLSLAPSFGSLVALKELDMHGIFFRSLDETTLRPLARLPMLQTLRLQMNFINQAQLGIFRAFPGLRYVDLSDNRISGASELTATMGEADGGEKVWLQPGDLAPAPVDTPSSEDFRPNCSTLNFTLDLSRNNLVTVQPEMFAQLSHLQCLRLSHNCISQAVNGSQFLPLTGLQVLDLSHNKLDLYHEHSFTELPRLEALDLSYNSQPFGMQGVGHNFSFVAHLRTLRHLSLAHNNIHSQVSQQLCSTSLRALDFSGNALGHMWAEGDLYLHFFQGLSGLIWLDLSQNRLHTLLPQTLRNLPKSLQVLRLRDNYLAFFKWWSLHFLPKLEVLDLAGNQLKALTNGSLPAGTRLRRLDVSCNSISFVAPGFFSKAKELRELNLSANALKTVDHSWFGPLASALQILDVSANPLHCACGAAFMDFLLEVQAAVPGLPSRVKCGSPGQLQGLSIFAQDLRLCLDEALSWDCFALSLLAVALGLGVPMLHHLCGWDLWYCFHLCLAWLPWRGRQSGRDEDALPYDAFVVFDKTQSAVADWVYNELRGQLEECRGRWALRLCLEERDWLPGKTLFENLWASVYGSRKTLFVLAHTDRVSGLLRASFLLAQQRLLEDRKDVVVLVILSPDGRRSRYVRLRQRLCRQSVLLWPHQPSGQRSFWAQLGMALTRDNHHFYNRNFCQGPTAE
# Experiment: Antagonist activity at TLR9 in human PBMC assessed as inhibition of ODN2216-induced IFNalpha production
# Type: tissue-based
# Details: not given
row,IC50 [µM],Compound
1,1,Cc1cc(-c2ccnc3[nH]ncc23)cnc1OCC12CCC(N)(CC1)CC2
2,3.7,Cn1ncc2c(-c3ccc(OCC45CCC(N)(CC4)CC5)c(F)c3)nc(N)nc21
3,> 5,Cc1cc(-c2ccnc3[nH]ncc23)cnc1OCC12CCC(O)(CC1)CC2

# System: not listed separately
# Experiment: AUC in BALB/c mouse at 20 mg/kg, po
# Type: ADME, organism-based
# Parameters: dose 20 mg/kg
# Details: in vivo
row,AUC [µM·h],Compound
1,29.6,Cc1cc(-c2ccnc3[nH]ncc23)cnc1OCC12CCC(N)(CC1)CC2
2,36.3,Cc1cc(-c2ccnc3[nH]ncc23)cnc1OCC12CCC(O)(CC1)CC2

# System: not listed separately
# Experiment: Cmax in BALB/c mouse at 20 mg/kg, po
# Type: ADME, organism-based
# Parameters: route oral, dose 20 mg/kg
# Details: in vivo
row,Cmax [µM],Compound
1,3.23,Cc1cc(-c2ccnc3[nH]ncc23)cnc1OCC12CCC(N)(CC1)CC2
2,4.37,Cc1cc(-c2ccnc3[nH]ncc23)cnc1OCC12CCC(O)(CC1)CC2

# System: not listed separately
# Experiment: Clearance in BALB/c mouse at 5 mg/kg, iv
# Type: ADME, organism-based
# Details: in vivo
row,clearance [mL/min/kg],Compound
1,23,Cc1cc(-c2ccnc3[nH]ncc23)cnc1OCC12CCC(N)(CC1)CC2
2,11,Cc1cc(-c2ccnc3[nH]ncc23)cnc1OCC12CCC(O)(CC1)CC2

# System: not listed separately
# Experiment: Volume of distribution at steady state in BALB/c mouse at 5 mg/kg, iv
# Type: ADME, organism-based
# Details: in vivo, read-out: Vdss
row,Vd [L/kg],Compound
1,5.1,Cc1cc(-c2ccnc3[nH]ncc23)cnc1OCC12CCC(N)(CC1)CC2
2,3.1,Cc1cc(-c2ccnc3[nH]ncc23)cnc1OCC12CCC(O)(CC1)CC2

# System: not listed separately
# Experiment: Terminal half life in BALB/c mouse at 5 mg/kg, iv
# Type: ADME, organism-based
# Details: in vivo, read-out: beta t1/2 (converted)
row,half-life [min],Compound
1,240,Cc1cc(-c2ccnc3[nH]ncc23)cnc1OCC12CCC(N)(CC1)CC2
2,282,Cc1cc(-c2ccnc3[nH]ncc23)cnc1OCC12CCC(O)(CC1)CC2

# System: not listed separately
# Experiment: Oral bioavailability in BALB/c mouse at 20 mg/kg
# Type: ADME, organism-based
# Details: in vivo
row,bioavailability [%],Compound
1,75,Cc1cc(-c2ccnc3[nH]ncc23)cnc1OCC12CCC(N)(CC1)CC2
2,43,Cc1cc(-c2ccnc3[nH]ncc23)cnc1OCC12CCC(O)(CC1)CC2
